“Also recorded” adds a separate entry of the source. Read-outs that look alike come from different tables or passages of the source.
Legend:
hAChE = target: T1, hAChE (Homo sapiens, UniProt P22303); assay: biochemical; conditions: for IC50: human AChE, mean of three independent experiments ± SEM
T1 construct: purchased Sigma-Aldrich (Milan, Italy)
Method: All human enzymes, substrates and reagents were from Sigma-Aldrich (Milan, Italy). Experiments were run in 96-well plates from Greiner Bio-One (Kremsmenster, Austria) with an Infinite M1000 Pro multiplate reader (Tecan, Cernusco sul Naviglio, Italy). The inhibition of ChEs was determined by following Ellman’s spectrophotometric assay in transparent, flat-bottom plates [18]. […] Incubations were performed in triplicate and results were expressed as the mean ± SEM from 3 independent experiments. The values of IC50 were calculated by nonlinear regressions using GraphPad Prism 5.00 (GraphPad Software, San Diego, CA, USA). […] Apparent inhibition constants and kinetic parameters were calculated within the “Enzyme kinetics” module of Prism.

hBChE = target: T2, hBChE (Homo sapiens, UniProt P06276); assay: biochemical; type: biochemical; conditions: for inhibition at 10 µM: human BChE, mean ± SEM; for inhibitory activity toward hBChE (in words): summary of Table 1
T2 construct: purchased Sigma-Aldrich (Milan, Italy)
T2 sequence (P06276 29-602): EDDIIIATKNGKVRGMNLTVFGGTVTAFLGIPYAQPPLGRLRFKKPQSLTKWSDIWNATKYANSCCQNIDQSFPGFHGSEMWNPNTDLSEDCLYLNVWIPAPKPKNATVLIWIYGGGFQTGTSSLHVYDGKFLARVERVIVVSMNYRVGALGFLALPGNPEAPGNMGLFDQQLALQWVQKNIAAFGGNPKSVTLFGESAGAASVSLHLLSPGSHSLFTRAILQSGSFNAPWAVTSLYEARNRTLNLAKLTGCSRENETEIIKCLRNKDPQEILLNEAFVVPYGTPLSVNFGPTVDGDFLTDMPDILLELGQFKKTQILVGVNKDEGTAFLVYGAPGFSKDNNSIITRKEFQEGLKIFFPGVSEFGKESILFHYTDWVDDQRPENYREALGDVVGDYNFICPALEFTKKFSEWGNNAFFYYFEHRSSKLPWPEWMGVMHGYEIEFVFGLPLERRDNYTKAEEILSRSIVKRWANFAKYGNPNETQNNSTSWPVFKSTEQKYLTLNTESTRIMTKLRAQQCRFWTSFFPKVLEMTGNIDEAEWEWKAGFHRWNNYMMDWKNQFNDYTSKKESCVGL
Method: All human enzymes, substrates and reagents were from Sigma-Aldrich (Milan, Italy). Experiments were run in 96-well plates from Greiner Bio-One (Kremsmenster, Austria) with an Infinite M1000 Pro multiplate reader (Tecan, Cernusco sul Naviglio, Italy). The inhibition of ChEs was determined by following Ellman’s spectrophotometric assay in transparent, flat-bottom plates [18]. […] Incubations were performed in triplicate and results were expressed as the mean ± SEM from 3 independent experiments. The values of IC50 were calculated by nonlinear regressions using GraphPad Prism 5.00 (GraphPad Software, San Diego, CA, USA).

hMAO A = target: T3, hMAO A (Homo sapiens, UniProt P21397); assay: Inhibition of human recombinant MAO A, spectrofluorimetric kynuramine assay; type: biochemical; conditions: for inhibition at 10 µM: read-out: % Inhibition at 10 μM hMAO A; for inhibition of MAO A activity (in words): summary of Table 1
T3 construct: purchased Sigma-Aldrich (Milan, Italy)
T3 sequence (P21397 1-527): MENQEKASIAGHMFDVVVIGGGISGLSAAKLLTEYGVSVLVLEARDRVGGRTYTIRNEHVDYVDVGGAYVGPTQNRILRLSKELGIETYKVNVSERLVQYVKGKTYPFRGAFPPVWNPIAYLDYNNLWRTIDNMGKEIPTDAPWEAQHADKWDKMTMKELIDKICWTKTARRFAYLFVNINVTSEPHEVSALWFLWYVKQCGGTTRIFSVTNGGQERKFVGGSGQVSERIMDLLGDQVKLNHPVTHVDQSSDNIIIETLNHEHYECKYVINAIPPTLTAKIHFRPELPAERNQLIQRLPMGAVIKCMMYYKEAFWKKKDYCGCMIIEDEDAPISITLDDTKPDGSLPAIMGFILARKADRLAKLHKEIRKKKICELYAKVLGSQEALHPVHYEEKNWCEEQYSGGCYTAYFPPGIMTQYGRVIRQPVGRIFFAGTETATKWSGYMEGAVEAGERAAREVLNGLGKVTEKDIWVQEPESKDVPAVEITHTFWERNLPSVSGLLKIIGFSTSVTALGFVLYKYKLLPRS
Method: (§1) All human enzymes, substrates and reagents were from Sigma-Aldrich (Milan, Italy). Experiments were run in 96-well plates from Greiner Bio-One (Kremsmenster, Austria) with an Infinite M1000 Pro multiplate reader (Tecan, Cernusco sul Naviglio, Italy). […] For studies addressing MAOs inhibition the spectrofluorimetric protocol was based on the oxidative deamination of kynuramine to 4-hydroxyquinoline measured in black, flat-bottom polystyrene plates [29]. Incubations were performed in triplicate and results were expressed as the mean ± SEM from 3 independent experiments. The values of IC50 were calculated by nonlinear regressions using GraphPad Prism 5.00 (GraphPad Software, San Diego, CA, USA).

hMAO B = target: T4, hMAO B (Homo sapiens, UniProt P27338); assay: Inhibition of human recombinant MAO B, spectrofluorimetric kynuramine assay; type: biochemical; conditions: for inhibition at 10 µM: read-out: % Inhibition at 10 μM hMAO B
T4 construct: purchased Sigma-Aldrich (Milan, Italy)
T4 sequence (P27338 1-520): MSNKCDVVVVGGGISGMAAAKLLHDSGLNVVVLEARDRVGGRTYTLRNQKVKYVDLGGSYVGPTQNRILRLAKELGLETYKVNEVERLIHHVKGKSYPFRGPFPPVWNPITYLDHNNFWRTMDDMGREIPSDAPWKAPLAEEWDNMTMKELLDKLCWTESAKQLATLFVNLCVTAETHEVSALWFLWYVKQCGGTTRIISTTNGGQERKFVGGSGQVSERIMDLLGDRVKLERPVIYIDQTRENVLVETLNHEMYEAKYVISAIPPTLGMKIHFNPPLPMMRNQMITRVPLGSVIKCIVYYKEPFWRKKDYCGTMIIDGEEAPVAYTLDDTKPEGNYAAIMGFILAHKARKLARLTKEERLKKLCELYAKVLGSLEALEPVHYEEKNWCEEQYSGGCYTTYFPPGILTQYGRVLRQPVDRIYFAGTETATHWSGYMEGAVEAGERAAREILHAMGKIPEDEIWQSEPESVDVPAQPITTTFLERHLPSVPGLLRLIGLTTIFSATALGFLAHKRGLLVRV
Method: as §1

[1] = Precipitation in the cell assay conditions; type: physicochemical; conditions: 20 μM, SH-SY5Y cell assay conditions
Method: The cell viability of human neuroblastoma SH-SY5Y cells was measured as previously reported in ref. [29]. […] Briefly, cells were plated at a concentration of 4.5 × 10^4 cells/well and cultured in Dulbecco’s modified Eagle’s medium (DMEM) high glucose supplemented with 10% (v/v) heat-inactivated fetal bovine serum (FBS), 2 mM L-glutamine, 100 U/mL penicillin, and 100 μg/mL streptomycin at 37 °C in an atmosphere of 5% CO2 in 96 wells/plate. […] Then, cells were incubated for 2 h at 37 °C and 5% CO2 with 0.5 mg/mL of MTT, and the formazan crystals in the cells were solubilized with absolute ethanol. […] Cell viability was expressed as a percentage of the negative control (CTRL), represented by untreated cells, which was set at 100%. Data are the mean ± SD from three independent experiments, each performed in triplicate and analyzed using GraphPad Prism 5.0 (GraphPad Software Inc., San Diego, CA, USA). Statistical significance was calculated using a one-way analysis of variance (ANOVA) followed by Dunnett’s multiple comparison test. Levels of significance refer to untreated cells: * p < 0.05.

[2] = human recombinant MAO A on Supersomes, 10 μM, mean ± SEM
[3] = human recombinant MAO B on Supersomes, 10 μM, mean ± SEM

T1 sequence (P22303 32-614): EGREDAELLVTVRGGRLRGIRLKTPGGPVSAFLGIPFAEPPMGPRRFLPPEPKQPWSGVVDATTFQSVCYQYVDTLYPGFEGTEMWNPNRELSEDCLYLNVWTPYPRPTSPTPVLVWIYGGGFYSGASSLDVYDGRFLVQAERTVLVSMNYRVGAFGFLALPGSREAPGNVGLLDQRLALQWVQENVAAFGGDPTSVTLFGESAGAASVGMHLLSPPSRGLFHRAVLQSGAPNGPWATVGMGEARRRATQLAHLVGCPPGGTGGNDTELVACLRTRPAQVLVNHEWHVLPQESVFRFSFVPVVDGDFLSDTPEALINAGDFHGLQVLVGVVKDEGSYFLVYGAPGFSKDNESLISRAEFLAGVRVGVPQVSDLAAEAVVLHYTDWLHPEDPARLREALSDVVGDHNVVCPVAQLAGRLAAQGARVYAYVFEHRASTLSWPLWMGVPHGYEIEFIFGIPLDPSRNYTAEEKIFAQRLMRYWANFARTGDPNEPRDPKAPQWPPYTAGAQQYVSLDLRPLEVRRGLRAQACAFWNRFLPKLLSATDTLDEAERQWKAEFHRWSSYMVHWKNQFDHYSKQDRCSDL

Cc1ccc([C@@H]2c3c(c4ccccc4oc3=O)O[C@H]2c2ccccc2S(C)(=O)=O)cc1 [Compound 2a]
IC50 (hAChE): 5.5 ± 0.7 µM | inhibition at 10 µM (hBChE): 27 ± 12% | inhibitory activity toward hBChE (in words) (hBChE): very low percentage of inhibition | inhibition at 10 µM (hMAO A): 47 ± 3% | inhibition at 10 µM (hMAO B): 40 ± 8% | precipitation in the assay conditions at higher concentrations [1]: precipitation

COc1ccc([C@@H]2c3c(c4ccccc4oc3=O)O[C@H]2c2ccccc2S(C)(=O)=O)cc1 [Compound 2b]
IC50 (hAChE): 6.1 ± 0.3 µM | inhibition at 10 µM (hBChE): 29 ± 11% | inhibitory activity toward hBChE (in words) (hBChE): very low percentage of inhibition | inhibition at 10 µM (hMAO A): 45 ± 1% | inhibition at 10 µM (hMAO B): 39 ± 6% | precipitation in the assay conditions at higher concentrations [1]: precipitation

CS(=O)(=O)c1ccccc1[C@@H]1Oc2c(c(=O)oc3ccccc23)[C@H]1c1ccc(Cl)cc1 [Compound 2c]
IC50 (hAChE): 4 ± 0.7 µM | inhibition at 10 µM (hBChE): < 5% | inhibitory activity toward hBChE (in words) (hBChE): absence of inhibitory activities | inhibition at 10 µM (hMAO A): 16 ± 14% | inhibition at 10 µM (hMAO B): 11 ± 6%

CS(=O)(=O)c1ccccc1[C@@H]1Oc2c(c(=O)oc3ccccc23)[C@H]1c1cccs1 [Compound 2d]
IC50 (hAChE): 4 ± 0.5 µM | inhibition at 10 µM (hBChE): < 5% | inhibitory activity toward hBChE (in words) (hBChE): absence of inhibitory activities | inhibition at 10 µM (hMAO A): 42 ± 4% | inhibition at 10 µM (hMAO B): 17 ± 10% | precipitation in the assay conditions at higher concentrations [1]: precipitation

Cc1ccc(-c2c(-c3ccccc3S(C)(=O)=O)oc3c2c(=O)oc2ccccc23)cc1 [Compound 3a]
IC50 (hAChE): 4.4 ± 0.5 µM | inhibition at 10 µM (hBChE): < 5% | inhibitory activity toward hBChE (in words) (hBChE): absence of inhibitory activities | inhibition at 10 µM (hMAO A; [2]): < 5% | inhibition of MAO A activity (in words) (hMAO A; 10 μM): inactive | inhibition at 10 µM (hMAO B; [3]): 32%

COc1ccc(-c2c(-c3ccccc3S(C)(=O)=O)oc3c2c(=O)oc2ccccc23)cc1 [Compound 3b]
IC50 (hAChE): 5.7 ± 1 µM | inhibition at 10 µM (hBChE): 19 ± 9% | inhibitory activity toward hBChE (in words) (hBChE): very low percentage of inhibition | inhibition at 10 µM (hMAO A; [2]): < 5% | inhibition of MAO A activity (in words) (hMAO A; 10 μM): inactive | inhibition at 10 µM (hMAO B; [3]): 43 ± 1%

CS(=O)(=O)c1ccccc1-c1oc2c(c1-c1cccs1)c(=O)oc1ccccc12 [Compound 3d]
inhibition mechanism for AChE (hAChE; Lineweaver-Burk plots, inhibitor 0–15 μM): mixed-type or a non-competitive inhibition mechanism; also recorded: mixed-type kinetics; also recorded: mixed-type or non-competitive binding mode | Ki (hAChE; Lineweaver-Burk plots, inhibitor 0–15 μM, substrate S-acetylthiocholine 0.033 to 0.2 mM, read-out: Ki AChE): 9.7 ± 0.6 µM | IC50 (hAChE): 4.1 ± 0.7 µM | inhibition at 10 µM (hBChE): 21 ± 3% | inhibitory activity toward hBChE (in words) (hBChE): very low percentage of inhibition | inhibition at 10 µM (hMAO A; [2]): < 5% | inhibition of MAO A activity (in words) (hMAO A; 10 μM): no inhibition | IC50 (hMAO B): 0.561 ± 0.085 µM

Source: PMC12029227, “In Vitro Evaluation of Novel Furo[3,2-c]coumarins as Cholinesterases and Monoamine Oxidases Inhibitors” (Molecules, 2025)
